Consider two molecules from patent US12454494B2, “Process for the reduction of gas emission from farm manure” (Alzchem Trostberg GmbH, priority 2018, dated 2025).

The assay has as its system cattle liquid manure. Nature of the assay: Example 5: methane and CO2 emissions from cattle liquid manure during 170 days storage with Compositions 1, 2, 4, 5, 6. As to conditions: cf. Example 5. As for the experimental part: After stirring, the pH value and conductivity in the mixture were measured, and then the wide-neck container was immediately sealed tightly. An opening was drilled in the lid of the wide-neck container, in which a sealed gas storage bag (nominal volume 5.6 liters) was connected and in which the released gas volume was collected. This structure prevented atmospheric oxygen from entering the wide-neck container. This prevented CO2 from the air from falsifying the measurement results. The mixture was stored for exactly 170 days without stirring or agitation at a temperature of 23±1° C. and at an air pressure of 960 to 980 hPa and at 493 m above standard sea level (NHN). At regular intervals, the filled gas storage bag was exchanged, the stored gas volume was determined volumetrically, and the gas composition was analyzed by gas chromatography. […] After stirring, the pH value and conductivity in the mixture were measured, and then the wide-neck container was immediately sealed tightly. […] At regular intervals, the filled gas storage bag was exchanged, the stored gas volume was determined volumetrically, and the gas composition was analyzed by gas chromatography. […] After stirring, the pH value and conductivity in the mixture were measured, and then the wide-neck container was immediately sealed tightly. […]

In the case of `O=C([O-])[O-].[Ca+2]` [calcium carbonate], the “Effect alone on the emission of methane and carbon dioxide” value was “no impact”.

Regarding `[Ca+2].[OH-].[OH-]` [calcium hydroxide], the “Effect alone on the emission of methane and carbon dioxide” value is given as “additional effect”.
